Results reported in PubChem BioAssay (NCI).
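Five concentrations, 48 hours, 96-well plates. At the TGI there is no net growth.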

How the values were obtained:
Test in all cases: growth of human tumour cells (NCI), 48 h
HOP-92 NSCLC = tested on: HOP-92 NSCLC
COLO 205 colon = tested on: COLO 205 colon
HCT-15 colon = tested on: HCT-15 colon
NCI-H23 lung = tested on: NCI-H23 lung
CAKI-1 renal = tested on: CAKI-1 renal
SNB-19 CNS = tested on: SNB-19 CNS
OVCAR-8 ovarian = tested on: OVCAR-8 ovarian
SK-MEL-2 melanoma = tested on: SK-MEL-2 melanoma
RXF-631 renal = tested on: RXF-631 renal
RXF 393 renal = tested on: RXF 393 renal
UACC-62 melanoma = tested on: UACC-62 melanoma
SNB-75 CNS = tested on: SNB-75 CNS
KM20L2 colon = tested on: KM20L2 colon
ACHN renal = tested on: ACHN renal
M14 melanoma = tested on: M14 melanoma
M19-MEL melanoma = tested on: M19-MEL melanoma
SN12C renal = tested on: SN12C renal
NCI-H460 lung = tested on: NCI-H460 lung
A549 NSCLC = tested on: A549 NSCLC
U251 CNS = tested on: U251 CNS
RPMI-8226 leukemia = tested on: RPMI-8226 leukemia
HCT-116 colon = tested on: HCT-116 colon
OVCAR-3 ovarian = tested on: OVCAR-3 ovarian
LOX IMVI melanoma = tested on: LOX IMVI melanoma
EKVX NSCLC = tested on: EKVX NSCLC
SW-620 colon = tested on: SW-620 colon
XF 498 CNS = tested on: XF 498 CNS
DMS 273 small cell lung = tested on: DMS 273 small cell lung
HOP-62 NSCLC = tested on: HOP-62 NSCLC
HOP-18 NSCLC = tested on: HOP-18 NSCLC
OVCAR-4 ovarian = tested on: OVCAR-4 ovarian
UACC-257 melanoma = tested on: UACC-257 melanoma
HT29 colon = tested on: HT29 colon
DMS 114 small cell lung = tested on: DMS 114 small cell lung
SF-295 CNS = tested on: SF-295 CNS
TK-10 renal = tested on: TK-10 renal
SK-OV-3 ovarian = tested on: SK-OV-3 ovarian
SNB-78 CNS = tested on: SNB-78 CNS
UO-31 renal = tested on: UO-31 renal
SK-MEL-5 melanoma = tested on: SK-MEL-5 melanoma
SK-MEL-28 melanoma = tested on: SK-MEL-28 melanoma
MALME-3M melanoma = tested on: MALME-3M melanoma
IGROV1 ovarian = tested on: IGROV1 ovarian
DLD-1 colon = tested on: DLD-1 colon
KM12 colon = tested on: KM12 colon
LXFL 529 NSCLC = tested on: LXFL 529 NSCLC
MOLT-4 leukemia = tested on: MOLT-4 leukemia
SR leukemia = tested on: SR leukemia
HL-60(TB) leukemia = tested on: HL-60(TB) leukemia
A498 renal = tested on: A498 renal
786-0 renal = tested on: 786-0 renal
SF-268 CNS = tested on: SF-268 CNS
CCRF-CEM leukemia = tested on: CCRF-CEM leukemia
NCI-H226 lung = tested on: NCI-H226 lung
K-562 leukemia = tested on: K-562 leukemia
NCI-H522 lung = tested on: NCI-H522 lung
SF-539 CNS = tested on: SF-539 CNS
OVCAR-5 ovarian = tested on: OVCAR-5 ovarian
HCC-2998 colon = tested on: HCC-2998 colon

Measured: TGI

COc1ccc(C2C(C(=O)O)=C(CO)Oc3cc4c(cc32)OCO4)cc1 (configuration not stated)
not listed: KM12 colon | LXFL 529 NSCLC | MOLT-4 leukemia | SR leukemia | HL-60(TB) leukemia | A498 renal | 786-0 renal | SF-268 CNS | CCRF-CEM leukemia | NCI-H226 lung | K-562 leukemia | NCI-H522 lung | SF-539 CNS | OVCAR-5 ovarian | HCC-2998 colon
> 100 µM: all other assays above

O=C(O)CP(=S)(S)c1ccccc1 (configuration not stated)
not listed: HCT-15 colon | RXF-631 renal | SNB-75 CNS | KM20L2 colon | RPMI-8226 leukemia | HCT-116 colon | OVCAR-3 ovarian | HOP-18 NSCLC | IGROV1 ovarian | OVCAR-5 ovarian | HCC-2998 colon
> 100 µM: all other assays above

CC(C)=CCC/C(=C/CC/C(C)=C/CCc1ccoc1)C(=O)O
not listed: CAKI-1 renal | RXF-631 renal | RPMI-8226 leukemia | DMS 273 small cell lung | HOP-18 NSCLC | TK-10 renal | IGROV1 ovarian | SR leukemia | HL-60(TB) leukemia
> 100 µM: all other assays above
